Data on ten molecules can be found in US12024531B2, “Immunoproteasome inhibitors” (Principia Biopharma Inc., priority 2017, dated 2024).

Common to all, as to type: biochemical
The target in test [1] is immunoproteasome LMP2 subunit (Homo sapiens, UniProt P28065). The experiment in a line: Caliper-based proteasome enzymatic activity assay, LMP2. As to conditions: human recombinant immunoproteasome 0.3 nM, FAM peptide substrate 1 μM, rt 2 h.
The target in test [2] is constitutive proteasome β5c subunit (Homo sapiens, UniProt P28074). In words: Caliper-based proteasome enzymatic activity assay, β5c. As to conditions: human recombinant constitutive proteasome 0.3 nM, FAM peptide substrate 1 μM, rt 3 h.
Test [3] has as its target immunoproteasome LMP7/B5i subunit (Homo sapiens, UniProt P28062). The experiment in a line: Caliper-based proteasome enzymatic activity assay, LMP7. As to conditions: human recombinant immunoproteasome 0.3 nM, FAM peptide substrate 1 μM, rt 3 h.

Structures are written as SMILES.

By IC50 is commonly meant the concentration at which inhibition is half-maximal. Take `CN(C)C(=O)C(C#N)=Cc1cc(F)cc(OCCC(=O)N[C@@H](Cc2ccccc2)B(O)O)c1` [Example 41, (R)-(1-(3-(3-(2-cyano-3-(dimethylamino)-3-oxoprop-1-en-1-yl)-5-fluorophenoxy)propanamido)-2-phenylethyl)boronic Acid]: the values for the half-maximal inhibitory concentration (IC50) in test [1], in test [2] and in test [3] were 320 nM, 176 nM and 4.1 nM, respectively.

For `CN(C)C(=O)C(C#N)=Cc1cc(OCCC(=O)N[C@@H](Cc2ccccc2)B(O)O)ccc1F` [Example 42, (R)-(1-(3-(3-(2-cyano-3-(dimethylamino)-3-oxoprop-1-en-1-yl)-4-fluorophenoxy)propanamido)-2-phenylethyl)boronic Acid], the concentration for half-maximal inhibition (IC50) in test [1] turned out to be 393 nM; in test [2], 192 nM; in test [3], 6 nM.

Take `CCN(CC)C(=O)C(C#N)=Cc1cccc(CCOC(=O)N[C@@H](Cc2ccc(Cl)cc2)B(O)O)c1` [Example 86, (R)-(2-(4-chlorophenyl)-1-(((3-(2-cyano-3-(diethylamino)-3-oxoprop-1-en-1-yl)phenethoxy)carbonyl)amino)ethyl)boronic Acid]: the results for the IC50 in test [1], in test [2] and in test [3] were over 5000 nM, 779 nM and 0.9 nM, respectively.

Turning to `CC(C)(C)NC(=O)C(C#N)=Cc1cccc(COC(=O)N[C@@H](Cc2ccccc2)B(O)O)c1` [Example 16, (R)-(1-((((3-(3-(tert-butylamino)-2-cyano-3-oxoprop-1-en-1-yl)benzyl)oxy)carbonyl)amino)-2-phenylethyl)boronic Acid], the IC50 in test [1] is 3570 nM; in test [2], 3680 nM; in test [3] it was 33 nM.

In the case of `CC(C)N(C(=O)C(C#N)=Cc1cccc(CCOC(=O)N[C@@H](Cc2ccccc2)B(O)O)c1)C(C)C` (single isomer, unassigned) [Example 74], the IC50 in test [1] was 2750 nM; in test [2], over 5000 nM; in test [3], 27.1 nM.

As to `N#CC(=Cc1cccc(OCCC(=O)N[C@@H](Cc2coc3ccccc23)B(O)O)c1)c1ccccn1` [Example 23, (R)-(2-(benzofuran-3-yl)-1-(3-(3-(2-cyano-2-(pyridin-2-yl)vinyl)phenoxy)propanamido)ethyl)boronic Acid], the half-inhibitory concentration (IC50) in test [1] is over 5000 nM; in test [2], 8 nM; in test [3], 0.8 nM.

`CCN(C(=O)C(C#N)=Cc1cccc(CCOC(=O)N[C@@H](Cc2ccccc2)B(O)O)c1)C(C)C` [Example 64, (R)-(1-(((3-(2-cyano-3-(ethyl(isopropyl)amino)-3-oxoprop-1-en-1-yl)phenethoxy)carbonyl)amino)-2-phenylethyl)boronic Acid]: the results for the half-inhibitory concentration (IC50) in test [1], in test [2] and in test [3] were 4540 nM, 1920 nM and 2.5 nM, respectively.

`N#CC(=Cc1ccc(Cl)c(OCCC(=O)N[C@@H](Cc2ccccc2)B(O)O)c1Cl)c1ccccn1` [Example 39, (R)-(1-(3-(2,6-dichloro-3-(2-cyano-2-(pyridin-2-yl)vinyl)phenoxy)propanamido)-2-phenylethyl)boronic Acid]: the IC50 in test [1] stood at 325 nM; in test [2] it was 136 nM; in test [3], 14 nM.

On to `CN(C)C(=O)C(C#N)=Cc1cccc(CCCC(=O)N[C@@H](Cc2ccccc2)B(O)O)c1` [Example 24, (R)-(1-(4-(3-(2-cyano-3-(dimethylamino)-3-oxoprop-1-en-1-yl)phenyl)butanamido)-2-phenylethyl)boronic Acid], for which the values for the half-maximal inhibitory concentration (IC50) in test [1], in test [2] and in test [3] were 1890 nM, 1930 nM and 12 nM, respectively.

On to `COCC(C)(C)NC(=O)C(C#N)=Cc1cccc(OCCC(=O)N[C@@H](Cc2ccccc2)B(O)O)c1` [Example 47, (R)-(1-(3-(3-(2-cyano-3-((1-methoxy-2-methylpropan-2-yl)amino)-3-oxoprop-1-en-1-yl)phenoxy)propanamido)-2-phenylethyl)boronic Acid], for which the values for the IC50 in test [1], in test [2] and in test [3] were 438 nM, 72.2 nM and 5.3 nM, respectively.
